# Measurements reported in BindingDB's records for patent US10087187 (Janssen Pharmaceutica, 2018).
# What was measured:
# [1] = biological target: Phosphatidylinositol 4,5-bisphosphate 3-kinase catalytic subunit alpha isoform (Homo sapiens, UniProt P42336); test: KINOMEscan Enzyme Binding Assays
# Experimental: (§1) Kinase enzyme binding affinities of compounds disclosed herein were determined using the KINOMEscan technology performed by DiscoveRx Corporation, San Diego, Calif., USA (www.kinomescan.com).
# [2] = biological target: Phosphatidylinositol 4,5-bisphosphate 3-kinase catalytic subunit beta isoform (Homo sapiens, UniProt P42338); test: KINOMEscan Enzyme Binding Assays
# Chain of Phosphatidylinositol 4,5-bisphosphate 3-kinase catalytic subunit beta isoform (P42338 whole entry, canonical isoform): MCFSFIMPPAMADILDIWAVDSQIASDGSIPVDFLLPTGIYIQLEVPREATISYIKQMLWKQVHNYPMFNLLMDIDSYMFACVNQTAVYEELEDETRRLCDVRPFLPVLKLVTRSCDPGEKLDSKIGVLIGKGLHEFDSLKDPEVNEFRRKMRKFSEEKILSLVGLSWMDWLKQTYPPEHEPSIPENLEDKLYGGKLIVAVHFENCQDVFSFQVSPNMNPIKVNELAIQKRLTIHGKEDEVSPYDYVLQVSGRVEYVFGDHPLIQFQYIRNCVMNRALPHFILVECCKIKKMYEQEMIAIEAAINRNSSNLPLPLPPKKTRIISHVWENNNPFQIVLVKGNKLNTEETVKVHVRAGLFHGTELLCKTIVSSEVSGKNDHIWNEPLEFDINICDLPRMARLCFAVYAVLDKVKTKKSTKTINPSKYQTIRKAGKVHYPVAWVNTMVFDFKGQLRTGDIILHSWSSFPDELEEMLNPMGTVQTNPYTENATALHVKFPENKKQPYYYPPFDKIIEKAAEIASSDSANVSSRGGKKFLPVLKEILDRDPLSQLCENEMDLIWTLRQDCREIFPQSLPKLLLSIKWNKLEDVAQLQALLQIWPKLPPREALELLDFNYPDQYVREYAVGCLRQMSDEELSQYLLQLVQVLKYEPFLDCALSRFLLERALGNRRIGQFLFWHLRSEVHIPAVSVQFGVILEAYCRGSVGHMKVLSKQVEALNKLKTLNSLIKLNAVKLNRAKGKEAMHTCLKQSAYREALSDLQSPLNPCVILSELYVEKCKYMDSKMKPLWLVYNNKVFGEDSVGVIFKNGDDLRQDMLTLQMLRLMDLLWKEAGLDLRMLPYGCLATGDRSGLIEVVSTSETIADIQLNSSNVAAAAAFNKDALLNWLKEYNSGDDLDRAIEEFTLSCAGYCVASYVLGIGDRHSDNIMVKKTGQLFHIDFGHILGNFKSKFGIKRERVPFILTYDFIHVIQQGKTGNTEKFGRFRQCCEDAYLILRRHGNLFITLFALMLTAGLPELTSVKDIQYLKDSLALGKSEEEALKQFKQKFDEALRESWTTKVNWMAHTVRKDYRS
# Experimental: as §1
# Chain of Phosphatidylinositol 4,5-bisphosphate 3-kinase catalytic subunit alpha isoform (P42336 whole entry, canonical isoform): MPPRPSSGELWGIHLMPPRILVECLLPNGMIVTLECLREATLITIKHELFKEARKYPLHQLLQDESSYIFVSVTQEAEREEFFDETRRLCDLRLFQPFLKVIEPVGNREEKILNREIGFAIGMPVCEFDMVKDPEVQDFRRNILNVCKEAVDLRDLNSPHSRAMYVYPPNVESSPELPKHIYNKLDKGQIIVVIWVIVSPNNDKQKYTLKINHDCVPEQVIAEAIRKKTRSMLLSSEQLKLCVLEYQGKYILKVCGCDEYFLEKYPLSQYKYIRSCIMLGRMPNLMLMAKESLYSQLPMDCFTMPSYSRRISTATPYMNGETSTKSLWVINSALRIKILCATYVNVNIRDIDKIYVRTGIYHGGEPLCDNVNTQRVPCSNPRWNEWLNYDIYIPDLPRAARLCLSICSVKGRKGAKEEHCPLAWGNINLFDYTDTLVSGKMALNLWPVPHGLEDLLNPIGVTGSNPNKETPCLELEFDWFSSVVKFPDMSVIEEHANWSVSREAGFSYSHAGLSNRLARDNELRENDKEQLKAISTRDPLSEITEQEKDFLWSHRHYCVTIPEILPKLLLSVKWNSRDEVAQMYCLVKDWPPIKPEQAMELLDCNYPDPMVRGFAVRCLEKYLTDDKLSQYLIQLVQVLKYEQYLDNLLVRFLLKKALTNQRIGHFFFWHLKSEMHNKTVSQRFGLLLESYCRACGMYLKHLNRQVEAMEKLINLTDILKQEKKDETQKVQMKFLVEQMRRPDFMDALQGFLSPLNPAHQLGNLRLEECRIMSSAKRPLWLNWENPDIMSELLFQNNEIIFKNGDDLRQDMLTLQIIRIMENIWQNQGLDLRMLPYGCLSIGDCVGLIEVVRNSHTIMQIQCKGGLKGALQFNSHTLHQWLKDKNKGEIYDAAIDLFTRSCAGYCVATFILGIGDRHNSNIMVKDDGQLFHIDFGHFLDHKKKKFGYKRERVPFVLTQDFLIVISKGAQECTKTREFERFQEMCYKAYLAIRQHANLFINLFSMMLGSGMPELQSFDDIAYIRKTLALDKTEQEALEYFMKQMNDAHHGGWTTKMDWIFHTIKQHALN
Compound,Kd [1] [nM],Kd [2] [nM]
"Cc1c(Cc2c(CO)nc3c(-c4cnc[nH]4)cc(N4CCOCC4)nn23)cccc1C(F)(F)F [US10087187, Compound 19]",886,1.9
"CCc1c(F)cccc1Cc1c(CNCCO)nc2c(N)cc(N3CCOCC3)nn12 [US10087187, Compound 101]",5890,6.2
